Test results reported in US20260262643A1, “HERBICIDAL BENZOXAZINES” (FMC CORPORATION, priority 2022, published 2026).

How the values were obtained:
rice = test: Test B flooded paddy test; format: in vivo, Oryza sativa; conditions: 250 g ai/ha, Flood, 13 days, 0 to 100 scale (0 no effect, 100 complete control); for plant injury at 250 g/ha: Oryza sativa, 312 h, read-out: Plant response rating, Rice
Outline: (§1)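 Application into standing water (3 cm above soil) at the two-leaf stage; flood depth held constant. Evaluation: day 13, visual comparison with controls, 0 = no injury, 100 = complete control.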

sedge, umbrella = test: Test B flooded paddy test; format: in vivo, Cyperus difformis; conditions: 250 g ai/ha, Flood, 13 days, 0 to 100 scale (0 no effect, 100 complete control); for pest or weed control at 250 g/ha: Cyperus difformis, 312 h, read-out: Plant response rating, Sedge, Umbrella
Outline: as §1

ryegrass, Italian [1] = test: Test A postemergence; format: in vivo, Lolium multiflorum; conditions: for pest or weed control at 1000 g/ha: Lolium multiflorum, post-emergence, 240 h, 1000 g ai/ha, read-out: Plant response rating, Ryegrass, Italian
Outline: (§2)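 Weeds and crops in loam–sand blend were sprayed preemergence onto soil or postemergence at 2–10 cm (one- to two-leaf stage). Test chemicals were in a non-phytotoxic solvent with surfactant. After 10 days in the greenhouse, injury was rated visually against untreated controls on a 0 (no effect) to 100 (complete control) scale.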

ducksalad = test: Test B flooded paddy test; format: in vivo, Heteranthera limosa; conditions: 250 g ai/ha, Flood, 13 days, 0 to 100 scale (0 no effect, 100 complete control); for pest or weed control at 250 g/ha: Heteranthera limosa, 312 h, read-out: Plant response rating, Ducksalad
Outline: as §1

foxtail, giant [2] = test: Test A postemergence; format: in vivo, Setaria faberi; conditions: for pest or weed control at 1000 g/ha: Setaria faberi, post-emergence, 240 h, 1000 g ai/ha, read-out: Plant response rating, Foxtail, Giant
Outline: as §2

ragweed [3] = test: Test A postemergence; format: in vivo, Ambrosia artemisiifolia; conditions: for pest or weed control at 1000 g/ha: Ambrosia artemisiifolia, post-emergence, 240 h, 1000 g ai/ha, read-out: Plant response rating, Ragweed
Outline: as §2

barnyardgrass [4] = test: Test A postemergence; format: in vivo, Echinochloa crusgalli
Outline: as §2

wheat = test: Test A postemergence; format: in vivo, Triticum aestivum; conditions: for plant injury at 1000 g/ha: Triticum aestivum, post-emergence, 240 h, 1000 g ai/ha, read-out: Plant response rating, Wheat
Outline: as §2

Pigweed, Redroot [5] = test: Test A postemergence; format: in vivo, Amaranthus retroflexus
Description: Seeds of plant species selected from barnyardgrass (Echinochloa crusgalli), blackgrass (Alopecurus myosuroides), corn (Zea mays), foxtail, giant (giant foxtail, Setaria faberi), goosegrass (Eleusine indica), kochia (Bassia scoparia), oat, wild (wild oat, Avena fatua), pigweed, palmer (palmer amaranth, palmer pigweed, Amaranthus palmeri), Pigweed, Redroot (redroot pigweed, Amaranthus retroflexus), ragweed (common ragweed, Ambrosia artemisiifolia), ryegrass, Italian (italian ryegrass, Lolium multiflorum), soybean (Glycine max), and wheat (Triticum aestivum) were planted into a blend of loam soil and sand and treated preemergence with a directed soil spray using test chemicals formulated in a non-phytotoxic solvent mixture which included a surfactant. At the same time, plants selected from these crops and weed species and also galium (catchweed bedstraw, Galium aparine) and horseweed (Erigeron canadensis) were planted in pots containing the same blend of loam soil and sand and treated with postemergence applications of test chemicals formulated in the same manner. Plants ranged in height from 2 to 10 cm and were in the one- to two-leaf stage for the postemergence treatment. Treated plants and untreated controls were maintained in a greenhouse for 10 days, after which time all treated plants were compared to untreated controls and visually evaluated for injury. Plant response ratings, summarized in Table A, are based on a 0 to 100 scale where 0 is no effect and 100 is complete control. A dash (-) response means no test result.

corn = test: Test A postemergence; format: in vivo, Zea mays; conditions: for Corn plant response rating (crop injury, 0 = no effect, 100 = complete kill) at 1000 g/ha: Zea mays, post-emergence, 240 h, 1000 g ai/ha
Outline: as §2

blackgrass = test: Test A postemergence; format: in vivo, Alopecurus myosuroides; conditions: for pest or weed control at 1000 g/ha: Alopecurus myosuroides, post-emergence, 240 h, 1000 g ai/ha, read-out: Plant response rating, Blackgrass
Outline: as §2

kochia [6] = test: Test A preemergence; format: in vivo, Bassia scoparia; conditions: for pest or weed control at 1000 g/ha: Bassia scoparia, pre-emergence, 240 h, 1000 g ai/ha, read-out: Plant response rating, Kochia
Outline: as §2

Pigweed, Redroot [7] = test: Test A preemergence; format: in vivo, Amaranthus retroflexus
Outline: as §2

barnyardgrass [8] = test: Test B flooded paddy test; format: in vivo, Echinochloa crus-galli; conditions: 250 g ai/ha, Flood, 13 days, 0 to 100 scale (0 no effect, 100 complete control); for pest or weed control at 250 g/ha: Echinochloa crus-galli, 312 h, read-out: Plant response rating, Barnyardgrass
Outline: as §1

kochia [9] = test: Test A postemergence; format: in vivo, Bassia scoparia; conditions: for pest or weed control at 1000 g/ha: Bassia scoparia, post-emergence, 240 h, 1000 g ai/ha, read-out: Plant response rating, Kochia
Outline: as §2

ryegrass, Italian [10] = test: Test A preemergence; format: in vivo, Lolium multiflorum; conditions: for pest or weed control at 1000 g/ha: Lolium multiflorum, pre-emergence, 240 h, 1000 g ai/ha, read-out: Plant response rating, Ryegrass, Italian
Outline: as §2

barnyardgrass [11] = test: Test A preemergence; format: in vivo, Echinochloa crusgalli
Outline: as §2

ragweed [12] = test: Test A preemergence; format: in vivo, Ambrosia artemisiifolia; conditions: for pest or weed control at 1000 g/ha: Ambrosia artemisiifolia, pre-emergence, 240 h, 1000 g ai/ha, read-out: Plant response rating, Ragweed
Outline: as §2

foxtail, giant [13] = test: Test A preemergence; format: in vivo, Setaria faberi; conditions: for pest or weed control at 1000 g/ha: Setaria faberi, pre-emergence, 240 h, 1000 g ai/ha, read-out: Plant response rating, Foxtail, Giant
Outline: as §2

galium = test: Test A postemergence; format: in vivo, Galium aparine; conditions: for pest or weed control at 1000 g/ha: Galium, post-emergence, 240 h, 1000 g ai/ha, read-out: Plant response rating, Galium
Outline: as §2

[14] = 1000 g ai/ha, Postemergence, 0 to 100 scale
[15] = 0 to 100 scale (0 no effect, 100 complete control), 10 days
[16] = 1000 g ai/ha, 0 to 100 scale (0 no effect, 100 complete control), 10 days
[17] = 125 g ai/ha, postemergence, 10 days, visual injury, 0 to 100 scale (0 no effect, 100 complete control)
[18] = 500 g ai/ha, Postemergence, 0 to 100 scale
[19] = 125 g ai/ha, visual injury after 10 days, 0 to 100 scale, 0 is no effect, 100 is complete control
[20] = 500 g ai/ha, 0 to 100 scale (0 no effect, 100 complete control), 10 days

With C[C@H]1CN(C(=O)c2cccc(-n3cncn3)c2)c2cccc(Cl)c2O1 [Compound 18, [(2S)-8-Chloro-2,3-dihydro-2-methyl-4H-1,4-benzoxazin-4-yl][3-(1H-1,2,4-triazol-1-yl)phenyl]methanone] the plant injury at 250 g/ha (rice) was 0%, the pest or weed control at 250 g/ha (sedge, umbrella) was 0% and the pest or weed control at 1000 g/ha (ryegrass, Italian [1]; Postemergence, 0 to 100 scale) was 80%. For the same molecule, the pest or weed control at 250 g/ha (ducksalad) was 0%, the pest or weed control at 1000 g/ha (foxtail, giant [2]; Postemergence, 0 to 100 scale) was 90% and the pest or weed control at 1000 g/ha (ragweed [3]; Postemergence, 0 to 100 scale) was 20%. For the same molecule, the “Plant response rating, Barnyardgrass” value (barnyardgrass [4]; [14]) was 70, the plant injury at 1000 g/ha (wheat; Postemergence, 0 to 100 scale) was 0% and the “Plant response rating, Pigweed, Redroot” value (Pigweed, Redroot [5]; [14]) was 40. The Corn plant response rating (crop injury, 0 = no effect, 100 = complete kill) at 1000 g/ha (corn; Postemergence, 0 to 100 scale) was 40%, the pest or weed control at 1000 g/ha (blackgrass; Postemergence, 0 to 100 scale) was 70% and the pest or weed control at 1000 g/ha (kochia [6]; [15]) was 70%. For the same molecule, the “Plant response rating, Pigweed, Redroot” value (Pigweed, Redroot [7]; [16]) was 100, the pest or weed control at 250 g/ha (barnyardgrass [8]) was 0% and the pest or weed control at 1000 g/ha (kochia [9]; Postemergence, 0 to 100 scale) was 50%. For the same molecule, the pest or weed control at 1000 g/ha (ryegrass, Italian [10]; [15]) was 90%, the “Plant response rating, Barnyardgrass” value (barnyardgrass [11]; [16]) was 90 and the pest or weed control at 1000 g/ha (ragweed [12]; [15]) was 80%. For the same molecule, the pest or weed control at 1000 g/ha (foxtail, giant [13]; [15]) was 100% and the pest or weed control at 1000 g/ha (galium; Postemergence, 0 to 100 scale) was 90%.

CCC1CN(C(=O)c2cccc(-n3cncn3)c2)c2cccc(Cl)c2O1 (racemic) [Compound 7] was tested, and the “Plant response rating, Rice” value (rice) was 0, the “Plant response rating, Sedge, Umbrella” value (sedge, umbrella) was 0 and the “Plant response rating, Ryegrass, Italian” value (ryegrass, Italian [1]; [17]) was 0. For the same molecule, the “Plant response rating, Ryegrass, Italian” value (ryegrass, Italian [1]; [18]) was 0, the “Plant response rating, Ducksalad” value (ducksalad) was 0 and the “Plant response rating, Foxtail, Giant” value (foxtail, giant [2]; [17]) was 10. The “Plant response rating, Foxtail, Giant” value (foxtail, giant [2]; [18]) was 20, the “Plant response rating, Ragweed” value (ragweed [3]; [17]) was 0 and the “Plant response rating, Ragweed” value (ragweed [3]; [18]) was 0. For the same molecule, the “Plant response rating, Barnyardgrass” value (barnyardgrass [4]; [17]) was 10, the “Plant response rating, Barnyardgrass” value (barnyardgrass [4]; [18]) was 20 and the “Plant response rating, Wheat” value (wheat; [17]) was 30. The “Plant response rating, Wheat” value (wheat; [18]) was 40, the “Plant response rating, Pigweed, Redroot” value (Pigweed, Redroot [5]; [17]) was 0 and the “Plant response rating, Pigweed, Redroot” value (Pigweed, Redroot [5]; [18]) was 30. For the same molecule, the “Plant response rating, Corn” value (corn; [17]) was 0, the “Plant response rating, Corn” value (corn; [18]) was 0 and the “Plant response rating, Blackgrass” value (blackgrass; [17]) was 0. For the same molecule, the “Plant response rating, Blackgrass” value (blackgrass; [18]) was 30, the “Plant response rating, Kochia” value (kochia [6]; [19]) was 40 and the “Plant response rating, Kochia” value (kochia [6]; [20]) was 80. For the same molecule, the “Plant response rating, Pigweed, Redroot” value (Pigweed, Redroot [7]; [19]) was 0, the “Plant response rating, Pigweed, Redroot” value (Pigweed, Redroot [7]; [20]) was 40 and the “Plant response rating, Barnyardgrass” value (barnyardgrass [8]) was 0. For the same molecule, the “Plant response rating, Kochia” value (kochia [9]; [17]) was 0, the “Plant response rating, Kochia” value (kochia [9]; [18]) was 20 and the “Plant response rating, Ryegrass, Italian” value (ryegrass, Italian [10]; [19]) was 50. For the same molecule, the “Plant response rating, Ryegrass, Italian” value (ryegrass, Italian [10]; [20]) was 50, the “Plant response rating, Barnyardgrass” value (barnyardgrass [11]; [19]) was 0 and the “Plant response rating, Barnyardgrass” value (barnyardgrass [11]; [20]) was 0. The “Plant response rating, Ragweed” value (ragweed [12]; [19]) was 0, the “Plant response rating, Ragweed” value (ragweed [12]; [20]) was 0 and the “Plant response rating, Foxtail, Giant” value (foxtail, giant [13]; [19]) was 10. For the same molecule, the “Plant response rating, Foxtail, Giant” value (foxtail, giant [13]; [20]) was 80, the “Plant response rating, Galium” value (galium; [17]) was 0 and the “Plant response rating, Galium” value (galium; [18]) was 60.

Molecule O=C(c1cccc(-n2cncn2)c1)N1CC(C2CC2)Oc2c(Cl)cccc21 (stereo not shown) [Compound 22, (8-Chloro-2-cyclopropyl-2,3-dihydro-4H-1,4-benzoxazin-4-yl)[3-(1H-1,2,4-triazol-1-yl)phenyl]methanone] has a plant injury at 250 g/ha (rice) of 0%, a pest or weed control at 250 g/ha (sedge, umbrella) of 0% and a pest or weed control at 1000 g/ha (ryegrass, Italian [1]; Postemergence, 0 to 100 scale) of 60%. For the same molecule, the pest or weed control at 250 g/ha (ducksalad) was 0%, the pest or weed control at 1000 g/ha (foxtail, giant [2]; Postemergence, 0 to 100 scale) was 80% and the pest or weed control at 1000 g/ha (ragweed [3]; Postemergence, 0 to 100 scale) was 50%. The “Plant response rating, Barnyardgrass” value (barnyardgrass [4]; [14]) was 50, the plant injury at 1000 g/ha (wheat; Postemergence, 0 to 100 scale) was 60% and the “Plant response rating, Pigweed, Redroot” value (Pigweed, Redroot [5]; [14]) was 60. For the same molecule, the Corn plant response rating (crop injury, 0 = no effect, 100 = complete kill) at 1000 g/ha (corn; Postemergence, 0 to 100 scale) was 70%, the pest or weed control at 1000 g/ha (blackgrass; Postemergence, 0 to 100 scale) was 80% and the pest or weed control at 1000 g/ha (kochia [6]; [15]) was 50%. The “Plant response rating, Pigweed, Redroot” value (Pigweed, Redroot [7]; [16]) was 60, the pest or weed control at 250 g/ha (barnyardgrass [8]) was 0% and the pest or weed control at 1000 g/ha (kochia [9]; Postemergence, 0 to 100 scale) was 70%. For the same molecule, the pest or weed control at 1000 g/ha (ryegrass, Italian [10]; [15]) was 90%, the “Plant response rating, Barnyardgrass” value (barnyardgrass [11]; [16]) was 90 and the pest or weed control at 1000 g/ha (ragweed [12]; [15]) was 20%. It also gave a pest or weed control at 1000 g/ha (foxtail, giant [13]; [15]) of 90% and a pest or weed control at 1000 g/ha (galium; Postemergence, 0 to 100 scale) of 90%.
